Experimental data published in ChEMBL document CHEMBL4177750, “Imidazopyrazinones (IPYs): Non-Quinolone Bacterial Topoisomerase Inhibitors Showing Partial Cross-Resistance with Quinolones” (J Med Chem, 2018).
≈ marks a conversion by molar mass, not a printed value. Calls of active or inactive are those of the source. The calls are words filed in the database; no cut-off is given here.

Columns and labels:
[1] = test system: Escherichia coli; experiment: Antibacterial activity against ESBL producing Escherichia coli ATCC 35218 after 20 to 22 hrs; format: functional
[2] = test system: Escherichia coli; experiment: Antibacterial activity against Escherichia coli K-12 MG1655 after 20 to 22 hrs; details: K-12 substr. MG1655
[3] = test system: Escherichia coli; experiment: Antibacterial activity against tolC-deficient Escherichia coli K-12 MG1655 after 20 to 22 hrs; format: functional; details: K-12 substr. MG1655
[4] = test system: Escherichia coli; experiment: Antibacterial activity against hyperpermeable Escherichia coli D22 harboring LpxC mutant after 20 to 22 hrs
[5] = test system: Pseudomonas aeruginosa; experiment: Antibacterial activity against Pseudomonas aeruginosa PAO1 after 20 to 22 hrs; format: functional
[6] = test system: Pseudomonas aeruginosa; experiment: Antibacterial activity against Pseudomonas aeruginosa PAO750 harboring mexAB-oprM/mexCD-oprJ/mexEF-oprN/mexXY/opmH/mexJK/pscC deletion mutant after 20 to 22 hrs; format: functional
[7] = test system: Staphylococcus aureus; experiment: Antibacterial activity against methicillin-resistant Staphylococcus aureus ATCC 33592 after 20 to 22 hrs; format: functional
[8] = Cytotoxicity against human HepG2 cells assessed as decrease in cell viability after 40 hrs by Celltiter Glo assay
[9] = test system: Escherichia coli; experiment: Inhibition of DNA synthesis in tolC-deficient Escherichia coli K-12 MG1655 at MIC to 8 times MIC after 5 to 120 mins by [methyl-3H]-thymidine incorporation assay; format: functional, organism-based; details: K-12 substr. MG1655
[10] = test system: Acinetobacter baumannii; experiment: Antibacterial activity against Acinetobacter baumannii BM4652 harboring adeABC/adeIJK deletion mutant after 20 to 22 hrs; format: functional
[11] = test system: Klebsiella pneumoniae; experiment: Antibacterial activity against tolC-deficient Klebsiella pneumoniae 1161486a after 20 to 22 hrs; format: functional
[12] = test system: Acinetobacter baumannii; experiment: Antibacterial activity against Acinetobacter baumannii BM4454 after 20 to 22 hrs; format: functional
[13] = test system: Klebsiella pneumoniae; experiment: Antibacterial activity against Klebsiella pneumoniae 1161486 after 20 to 22 hrs; format: functional
[14] = test system: Staphylococcus aureus; experiment: Antibacterial activity against methicillin-resistant Staphylococcus aureus ATCC 33592 after 20 to 22 hrs in presence of 50% calf fetal serum; format: functional, organism-based
[15] = test system: Staphylococcus aureus; experiment: Antibacterial activity against methicillin-resistant Staphylococcus aureus ATCC 33592 after 20 to 22 hrs in presence of 50% mouse serum; format: functional, organism-based
[16] = Thermodynamic aqueous solubility of the compound at pH 7.4; details: aqueous solution
[17] = Apparent permeability across human Caco2 cells; details: Caco-2
[18] = Drug metabolism in human liver microsomes at 5 uM after 20 mins in presence of NADPH; format: ADME, microsome; details: read-out: Drug metabolism
[19] = Drug metabolism in mouse liver microsomes at 5 uM after 20 mins in presence of NADPH; format: ADME, microsome; details: read-out: Drug metabolism
[20] = Drug metabolism in rat liver microsomes at 5 uM after 20 mins in presence of NADPH; format: ADME, microsome; details: read-out: Drug metabolism
[21] = molecular target: T1, Cytochrome P450 3A4 (Homo sapiens, UniProt P08684); experiment: Inhibition of CYP3A4-mediated midazolam metabolism in human liver microsomes
[22] = molecular target: T1, Cytochrome P450 3A4; experiment: Inhibition of CYP3A4-mediated testosterone metabolism in human liver microsomes
[23] = molecular target: Voltage-gated inwardly rectifying potassium channel KCNH2 (Homo sapiens, UniProt Q12809); experiment: Inhibition of human ERG transfected in CHO cells by patch clamp method
[24] = Metabolic stability in mouse plasma at 1 uM after 4 hrs; format: ADME, cell-free; details: read-out: Stability
[25] = Metabolic stability in rat plasma at 1 uM after 4 hrs; format: ADME, cell-free; details: read-out: Stability
[26] = test system: L5178Y; experiment: Genotoxicity in mouse L5178Y cells after 23 hrs in absence of S9 fraction by micronucleus test; format: toxicity, cell-based
[27] = test system: L5178Y; experiment: Genotoxicity in mouse L5178Y cells after 3 hrs in presence of S9 fraction by micronucleus test; format: toxicity, cell-based; details: s9, 3 h
[28] = test system: Staphylococcus aureus; experiment: Antibacterial activity against wild type Staphylococcus aureus RN4220 after 20 to 22 hrs; format: functional
[29] = test system: Staphylococcus aureus; experiment: Antibacterial activity against Staphylococcus aureus RN4220 harboring GyrA D83N mutant after 20 to 22 hrs; format: functional
[30] = test system: Staphylococcus aureus; experiment: Antibacterial activity against Staphylococcus aureus RN4220 harboring GyrA D83N/ParC D79N double mutant after 20 to 22 hrs; format: functional
[31] = test system: Staphylococcus aureus; experiment: Antibacterial activity against Staphylococcus aureus RN4220 harboring GyrB D437N mutant after 20 to 22 hrs; format: functional
[32] = test system: Staphylococcus aureus; experiment: Antibacterial activity against Staphylococcus aureus RN4220 harboring ParC S80F mutant after 20 to 22 hrs; format: functional
[33] = test system: Staphylococcus aureus; experiment: Antibacterial activity against Staphylococcus aureus RN4220 harboring ParC S80F/GyrA S84L double mutant after 20 to 22 hrs; format: functional
[34] = test system: Klebsiella pneumoniae; experiment: Antibacterial activity against wild type Klebsiella pneumoniae 1161486 after 20 to 22 hrs; format: functional
[35] = test system: Klebsiella pneumoniae; experiment: Antibacterial activity against Klebsiella pneumoniae 1161486 harboring GyrA S83I mutant after 20 to 22 hrs; format: functional
[36] = test system: Klebsiella pneumoniae; experiment: Antibacterial activity against Klebsiella pneumoniae 1161486 harboring GyrA S83I/ParC S80I double mutant after 20 to 22 hrs; format: functional
[37] = test system: Klebsiella pneumoniae; experiment: Antibacterial activity against Klebsiella pneumoniae 1161486 harboring GyrA S83F/D87V/ParC S80I triple mutant after 20 to 22 hrs; format: functional
[38] = test system: Escherichia coli; experiment: Antibacterial activity against Escherichia coli K-12 MG1655 harboring GyrA S83L/D87N/ParC S80I triple mutant after 20 to 22 hrs; format: functional; details: K-12 substr. MG1655
[39] = test system: Staphylococcus aureus; experiment: Resistance factor, ratio of MIC for Staphylococcus aureus RN4220 harboring GyrA D83N mutant to MIC for wild type Staphylococcus aureus RN4220; format: functional
[40] = test system: Staphylococcus aureus; experiment: Resistance factor, ratio of MIC for Staphylococcus aureus RN4220 harboring GyrA D83N/ParC D79N double mutant to MIC for wild type Staphylococcus aureus RN4220; format: functional
[41] = test system: Staphylococcus aureus; experiment: Resistance factor, ratio of MIC for Staphylococcus aureus RN4220 harboring GyrB D437N mutant to MIC for wild type Staphylococcus aureus RN4220; format: functional
[42] = test system: Staphylococcus aureus; experiment: Resistance factor, ratio of MIC for Staphylococcus aureus RN4220 harboring ParC S80F mutant to MIC for wild type Staphylococcus aureus RN4220; format: functional
[43] = test system: Staphylococcus aureus; experiment: Resistance factor, ratio of MIC for Staphylococcus aureus RN4220 harboring ParC S80F/GyrA S84L double mutant to MIC for wild type Staphylococcus aureus RN4220; format: functional
[44] = test system: Klebsiella pneumoniae; experiment: Resistance factor, ratio of MIC for Klebsiella pneumoniae 1161486 harboring GyrA S83I mutant to MIC for wild type Klebsiella pneumoniae 1161486; format: functional
[45] = test system: Klebsiella pneumoniae; experiment: Resistance factor, ratio of MIC for Klebsiella pneumoniae 1161486 harboring GyrA S83I/ParC S80I double mutant to MIC for wild type Klebsiella pneumoniae 1161486; format: functional
[46] = test system: Klebsiella pneumoniae; experiment: Resistance factor, ratio of MIC for Klebsiella pneumoniae 1161486 harboring GyrA S83F/D87V/ParC S80I triple mutant to MIC for wild type Klebsiella pneumoniae 1161486; format: functional
[47] = test system: Escherichia coli; experiment: Resistance factor, ratio of MIC for Escherichia coli K-12 MG1655 harboring GyrA S83L/D87N/ParC S80I triple mutant to MIC for wild type Escherichia coli K-12 MG1655; format: functional, K-12 substr. MG1655
[48] = test system: Escherichia coli; experiment: Antibacterial activity against tolC-deficient fluoroquinolones-sensitive Escherichia coli JC7623 clinical isolate harboring wild type DNA gyrase after 20 to 22 hrs
[49] = test system: Escherichia coli; experiment: Antibacterial activity against tolC-deficient fluoroquinolones-resistant Escherichia coli W4753 clinical isolate harboring DNA gyrase S83L/D87N/ParC S80I/ParE S458A mutant after 20 to 22 hrs
[50] = test system: Escherichia coli; experiment: Resistance factor, ratio of MIC for 4 times MIC-treated tolC-deficient Escherichia coli ATCC 25922 harboring DR76_3503 Q47H mutant to MIC for tolC-deficient Escherichia coli ATCC 25922; format: functional
[51] = test system: Escherichia coli; experiment: Resistance factor, ratio of MIC for 4 times MIC-treated tolC-deficient Escherichia coli ATCC 25922 to MIC for tolC-deficient Escherichia coli ATCC 25922; format: functional
[52] = molecular target: DNA gyrase (Escherichia coli, UniProt P0AES4+P0AES6)
Description: Inhibition of Escherichia coli DNA gyrase A2B2 using relaxed pNO1 as substrate

T1 sequence (P08684 whole entry): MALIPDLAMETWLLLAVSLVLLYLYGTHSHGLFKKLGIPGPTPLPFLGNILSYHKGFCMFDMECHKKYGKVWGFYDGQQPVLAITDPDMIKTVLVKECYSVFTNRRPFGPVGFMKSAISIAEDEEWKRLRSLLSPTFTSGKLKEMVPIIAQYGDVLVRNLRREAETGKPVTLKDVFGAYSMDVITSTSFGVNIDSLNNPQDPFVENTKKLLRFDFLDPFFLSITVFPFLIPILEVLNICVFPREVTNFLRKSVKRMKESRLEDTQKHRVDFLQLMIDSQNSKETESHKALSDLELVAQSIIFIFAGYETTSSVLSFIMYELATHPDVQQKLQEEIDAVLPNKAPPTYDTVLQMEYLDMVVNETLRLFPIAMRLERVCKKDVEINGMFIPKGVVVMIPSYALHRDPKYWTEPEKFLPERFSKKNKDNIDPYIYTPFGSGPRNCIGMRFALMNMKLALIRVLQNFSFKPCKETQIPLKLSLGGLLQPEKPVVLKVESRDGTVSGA
Voltage-gated inwardly rectifying potassium channel KCNH2, sequence (Q12809 whole entry): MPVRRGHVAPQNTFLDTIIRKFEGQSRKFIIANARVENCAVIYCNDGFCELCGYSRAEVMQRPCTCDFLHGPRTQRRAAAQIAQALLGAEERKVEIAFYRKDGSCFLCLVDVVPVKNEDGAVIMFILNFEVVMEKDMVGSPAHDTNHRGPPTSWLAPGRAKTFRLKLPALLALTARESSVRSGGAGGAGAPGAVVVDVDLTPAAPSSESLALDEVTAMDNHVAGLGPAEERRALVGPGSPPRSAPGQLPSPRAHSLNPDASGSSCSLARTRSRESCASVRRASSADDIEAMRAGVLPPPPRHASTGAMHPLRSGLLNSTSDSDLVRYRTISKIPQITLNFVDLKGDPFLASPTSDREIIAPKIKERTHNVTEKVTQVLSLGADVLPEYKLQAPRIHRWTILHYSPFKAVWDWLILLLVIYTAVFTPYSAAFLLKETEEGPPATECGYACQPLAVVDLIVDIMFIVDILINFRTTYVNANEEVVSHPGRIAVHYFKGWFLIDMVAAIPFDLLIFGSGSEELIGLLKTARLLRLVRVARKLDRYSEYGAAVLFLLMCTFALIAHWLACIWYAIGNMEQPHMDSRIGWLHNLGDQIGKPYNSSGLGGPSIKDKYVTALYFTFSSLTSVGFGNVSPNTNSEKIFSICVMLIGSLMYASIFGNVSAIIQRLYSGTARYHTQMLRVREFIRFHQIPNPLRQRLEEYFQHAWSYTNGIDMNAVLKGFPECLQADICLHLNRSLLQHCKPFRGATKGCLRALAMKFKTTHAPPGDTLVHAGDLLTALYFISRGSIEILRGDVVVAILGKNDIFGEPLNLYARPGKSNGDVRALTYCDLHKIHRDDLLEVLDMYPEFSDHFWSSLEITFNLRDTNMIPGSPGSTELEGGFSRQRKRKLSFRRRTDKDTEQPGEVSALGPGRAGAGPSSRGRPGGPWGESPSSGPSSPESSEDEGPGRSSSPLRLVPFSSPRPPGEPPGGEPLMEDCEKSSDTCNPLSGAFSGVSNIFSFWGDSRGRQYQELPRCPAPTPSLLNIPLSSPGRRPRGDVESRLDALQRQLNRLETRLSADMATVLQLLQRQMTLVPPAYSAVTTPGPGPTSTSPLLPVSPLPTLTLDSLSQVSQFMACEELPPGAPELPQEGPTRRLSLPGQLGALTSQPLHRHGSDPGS

## N[C@H]1CCN(c2cc3c(cc2F)n2ccnc2c(=O)n3C2CC2)C1
[1]
  MIC: 4 µg/mL (≈ 12.2 µM)
[2]
  MIC: 8 µg/mL (≈ 24.4 µM)
[3]
  MIC: < 0.125 µg/mL
[4]
  MIC: 2 µg/mL (≈ 6.11 µM)
[5]
  MIC: 32 µg/mL (≈ 97.8 µM)
[6]
  MIC: < 0.125 µg/mL
[7]
  MIC: 8 µg/mL (≈ 24.4 µM)
[8]
  CC50 at 40 h: > 30 µM
[9]
  inhibition: Active
[10]
  MIC: 4 to 8 µg/mL (≈ 12.2 to 24.4 µM)
[11]
  MIC: 0.5 µg/mL (≈ 1.53 µM)
[12]
  MIC: > 64 µg/mL
[13]
  MIC: 32 µg/mL (≈ 97.8 µM)
[14]
  Activity: Active
[15]
  Activity: Active
[16]
  solubility thermodynamic: 1130 µg/mL (≈ 3460 µM)
[17]
  Papp: 0.4 ×10⁻⁶ cm/s
[18]
  metabolised at 20 min, 5 µM: 6%
[19]
  metabolised at 20 min, 5 µM: 8%
[20]
  metabolised at 20 min, 5 µM: 11%
[21]
  IC50: > 30 µM
[22]
  IC50: > 30 µM
[23]
  IC50: > 30 µM
[24]
  remaining at 4 h, 1 µM: 80 to 120%
[25]
  remaining at 4 h, 1 µM: 80 to 120%
[26]
  Activity: Toxic
[27]
  Activity: Toxic
[28]
  MIC: 4 µg/mL (≈ 12.2 µM)
[29]
  MIC: 4 µg/mL (≈ 12.2 µM)
[30]
  MIC: 16 µg/mL (≈ 48.9 µM)
[31]
  MIC: 4 µg/mL (≈ 12.2 µM)
[32]
  MIC: 8 µg/mL (≈ 24.4 µM)
[33]
  MIC: 16 µg/mL (≈ 48.9 µM)
[34]
  MIC: 16 µg/mL (≈ 48.9 µM)
[35]
  MIC: 64 µg/mL (≈ 196 µM)
[36]
  MIC: 128 µg/mL (≈ 391 µM)
[37]
  MIC: 64 µg/mL (≈ 196 µM)
[38]
  MIC: 512 µg/mL (≈ 1560 µM)
[39]
  Ratio: 1
[40]
  Ratio: 4
[41]
  Ratio: 1
[42]
  Ratio: 2
[43]
  Ratio: 4
[44]
  Ratio: 4
[45]
  Ratio: 8
[46]
  Ratio: 4
[47]
  Ratio: 64
[48]
  MIC: 0.125 µg/mL (≈ 0.382 µM)
[49]
  MIC: 2 µg/mL (≈ 6.11 µM)
[50]
  Ratio: 32
[51]
  Ratio: 8
[52]
  IC50: 1.19 µM
